Patent US8952024B2, “Herbicidal pyrimidone derivatives” (E I du Pont de Nemours and Company, priority 2009, dated 2015)

Assays:
Type in all cases: in vivo
[1] = system: ducksalad (Heteranthera limosa); experiment: Test B flooded paddy test; details: for Plant response rating, Flood, Ducksalad: 250 g ai/ha, flooded paddy test, visual rating on 0 to 100 scale (0 no effect, 100 complete control) after 13 to 15 days; for Plant response rating, Ducksalad: Flood (flooded paddy test), 13 to 15 days
Outline: (§1)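 Each compound is added to standing floodwater (3 cm above soil, maintained) in pots of 2-leaf-stage plants; greenhouse exposure lasts 13–15 d before visual comparison with controls on a 0–100 control scale.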

[2] = system: barnyardgrass (Echinochloa crus-galli); experiment: Test B flooded paddy test; details: for Plant response rating, Flood, Barnyardgrass: 250 g ai/ha, flooded paddy test, visual rating on 0 to 100 scale (0 no effect, 100 complete control) after 13 to 15 days; for Plant response rating, Barnyardgrass: Flood (flooded paddy test), 13 to 15 days
Outline: as §1

rice (Oryza sativa) = experiment: Test B flooded paddy test; details: for Plant response rating, Flood, Rice: 250 g ai/ha, flooded paddy test, visual rating on 0 to 100 scale (0 no effect, 100 complete control) after 13 to 15 days; for Plant response rating, Rice: Flood (flooded paddy test), 13 to 15 days
Outline: as §1

[3] = system: umbrella sedge (Cyperus difformis); experiment: Test B flooded paddy test; details: for Plant response rating, Flood, Sedge, Umbrella: 250 g ai/ha, flooded paddy test, visual rating on 0 to 100 scale (0 no effect, 100 complete control) after 13 to 15 days; for Plant response rating, Sedge, Umbrella: Flood (flooded paddy test), 13 to 15 days
Outline: as §1

[4] = system: barnyardgrass (Echinochloa crus-galli); experiment: Test A pre-/postemergence plant response
Description: (§2) Seeds of barnyardgrass (Echinochloa crus-galli), large crabgrass (Digitaria sanguinalis), giant foxtail (Setaria faberii), morningglory (Ipomoea spp.), pigweed (Amaranthus retroflexus), velvetleaf (Abutilon theophrasti), wheat (Triticum aestivum) and corn (Zea mays) were planted into a blend of loam soil and sand and treated preemergence with a directed soil spray using test chemicals formulated in a non-phytotoxic solvent mixture which included a surfactant. At the same time these species were also treated with postemergence applications of test compounds formulated in the same manner.
(§3) Plants ranged in height from two to ten cm and were in the one- to two-leaf stage for the postemergence treatment. Treated plants and untreated controls were maintained in a greenhouse for approximately ten days, after which time all treated plants were compared to untreated controls and visually evaluated for injury. Plant response ratings, summarized in Table A, are based on a 0 to 100 scale where 0 is no effect and 100 is complete control. A dash (-) response means no test result.

[5] = system: morningglory (Ipomoea spp.); experiment: Test A pre-/postemergence plant response
Description: as §2, §3

[6] = system: velvetleaf (Abutilon theophrasti); experiment: Test A pre-/postemergence plant response
Description: as §2, §3

corn (Zea mays) = experiment: Test A pre-/postemergence plant response
Description: as §2, §3

[7] = system: giant foxtail (Setaria faberii); experiment: Test A pre-/postemergence plant response
Description: as §2, §3

[8] = system: pigweed (Amaranthus retroflexus); experiment: Test A pre-/postemergence plant response
Description: as §2, §3

[9] = system: wheat (Triticum aestivum); experiment: Test A pre-/postemergence plant response
Description: as §2, §3

[10] = system: large crabgrass (Digitaria sanguinalis); experiment: Test A pre-/postemergence plant response
Description: as §2, §3

[11] = 62 g ai/ha, scale of 0 to 100 where 0 is no effect and 100 is complete control
[12] = Postemergence, 125 g ai/ha, 0 to 100 scale where 0 is no effect and 100 is complete control
[13] = Postemergence, 500 g ai/ha, 0 to 100 scale, 0 = no effect, 100 = complete control, approx. ten days
[14] = Preemergence, 125 g ai/ha, 0 to 100 scale, 0 = no effect, 100 = complete control
[15] = Preemergence, 500 g ai/ha, visual injury, 0 to 100 scale (0 no effect, 100 complete control), approx. ten days
[16] = 125 g ai/ha, scale 0 to 100, 0 is no effect, 100 is complete control
[17] = Flood, 31 g ai/ha, scale 0 to 100 (0 no effect, 100 complete control)

CCCCn1c(-c2cccc(C)c2)ncc(C(=O)C2=C(O)CCCC2=O)c1=O [Compound 116]
75: Plant response rating, Flood, Barnyardgrass [2] | Plant response rating, Sedge, Umbrella [3, 11]
70: Plant response rating, Barnyardgrass [4, 15] | Plant response rating, Velvetleaf [6, 12] | Plant response rating, Crabgrass, Large [10, 15]
10: Plant response rating, Barnyardgrass [4, 14] | Plant response rating, Corn (corn (Zea mays); [13]) | Plant response rating, Foxtail, Giant [7, 14]
65: Plant response rating, Barnyardgrass [2, 11]
85: Plant response rating, Flood, Ducksalad [1]
80: Plant response rating, Ducksalad [1, 11] | Plant response rating, Barnyardgrass [4, 12] | Plant response rating, Crabgrass, Large [10, 13]
60: Plant response rating, Velvetleaf [6, 15] | Plant response rating, Foxtail, Giant [7, 12] | Plant response rating, Foxtail, Giant [7, 15] | Plant response rating, Pigweed [8, 14] | Plant response rating, Crabgrass, Large [10, 12]
0: Plant response rating, Flood, Rice (rice (Oryza sativa)) | Plant response rating, Rice (rice (Oryza sativa); [11]) | Plant response rating, Morningglory [5, 14] | Plant response rating, Corn (corn (Zea mays); [12]) | Plant response rating, Corn (corn (Zea mays); [14]) | Plant response rating, Corn (corn (Zea mays); [15]) | Plant response rating, Wheat [9, 12] | Plant response rating, Wheat [9, 13] | Plant response rating, Wheat [9, 14] | Plant response rating, Wheat [9, 15]
30: Plant response rating, Velvetleaf [6, 14] | Plant response rating, Crabgrass, Large [10, 14]
100: Plant response rating, Barnyardgrass [4, 13] | Plant response rating, Morningglory [5, 12] | Plant response rating, Morningglory [5, 13] | Plant response rating, Velvetleaf [6, 13] | Plant response rating, Pigweed [8, 12] | Plant response rating, Pigweed [8, 13] | Plant response rating, Pigweed [8, 15]
40: Plant response rating, Morningglory [5, 15]
90: Plant response rating, Flood, Sedge, Umbrella [3] | Plant response rating, Foxtail, Giant [7, 13]

CCCCn1c(-c2cccc(F)c2)ncc(C(=O)C2=C(O)CCCC2=O)c1=O [Compound 125]
70: Plant response rating, Flood, Ducksalad [1] | Plant response rating, Barnyardgrass [4, 12] | Plant response rating, Foxtail, Giant [7, 12] | Plant response rating, Crabgrass, Large [10, 12]
100: Plant response rating, Velvetleaf [6, 12] | Plant response rating, Velvetleaf [6, 13] | Plant response rating, Velvetleaf [6, 15] | Plant response rating, Pigweed [8, 13] | Plant response rating, Crabgrass, Large [10, 15]
35: Plant response rating, Sedge, Umbrella [3, 11]
80: Plant response rating, Morningglory [5, 12] | Plant response rating, Morningglory [5, 13] | Plant response rating, Foxtail, Giant [7, 15] | Plant response rating, Crabgrass, Large [10, 14]
0: Barnyardgrass plant response rating [2, 17] | Plant response rating, Flood, Rice (rice (Oryza sativa)) | Plant response rating, Rice (rice (Oryza sativa); [11]) | Plant response rating, Rice (rice (Oryza sativa); [16]) | Rice plant response rating (rice (Oryza sativa); [17]) | Plant response rating, Morningglory [5, 14] | Plant response rating, Morningglory [5, 15] | Plant response rating, Corn (corn (Zea mays); [12]) | Plant response rating, Corn (corn (Zea mays); [14]) | Plant response rating, Corn (corn (Zea mays); [15]) | Plant response rating, Wheat [9, 12] | Plant response rating, Wheat [9, 14] | Plant response rating, Wheat [9, 15]
40: Plant response rating, Ducksalad [1, 11] | Plant response rating, Barnyardgrass [2, 16] | Plant response rating, Foxtail, Giant [7, 14]
90: Plant response rating, Flood, Sedge, Umbrella [3] | Plant response rating, Sedge, Umbrella [3, 16] | Plant response rating, Barnyardgrass [4, 13] | Plant response rating, Barnyardgrass [4, 15] | Plant response rating, Foxtail, Giant [7, 13] | Plant response rating, Pigweed [8, 12] | Plant response rating, Pigweed [8, 14] | Plant response rating, Pigweed [8, 15] | Plant response rating, Crabgrass, Large [10, 13]
25: Plant response rating, Barnyardgrass [2, 11] | Sedge, Umbrella plant response rating [3, 17]
10: Plant response rating, Barnyardgrass [4, 14] | Plant response rating, Wheat [9, 13]
60: Plant response rating, Ducksalad [1, 16] | Plant response rating, Flood, Barnyardgrass [2] | Plant response rating, Velvetleaf [6, 14]
20: Ducksalad plant response rating [1, 17] | Plant response rating, Corn (corn (Zea mays); [13])
